tested on: biosynthesis of leukotrienes; assay: Inhibition of leukotriene biosynthesis in vivo, rat peritoneal anaphylaxis model, oral; details: Oral Dose at 30 μmol/kg, gavage one hour prior to antigen challenge; rat peritoneal fluid 15 min after challenge
Protocol: Inhibition of the biosynthesis of leuktrienes in vivo after oral administration of compound was determined using a rat peritoneal anaphylaxis model in a similar manner as that described by Young and coworkers (Young, P. R.; Dyer, R. D.; Carter, G. W. Fed. Proc., Fed. Am. Soc. Exp. Biol. 1985, 44, 1185). In this model rats were injected intraperitoneally (ip) with rabbit antibody to bovine serum albumin (BSA) and three hours later injected ip with BSA to induce an antgen-antibody response. Rats were sacrificed 15 minutes after this challenge and the peritoneal fluids were collected and analyzed for leukotriene levels. Test compounds were administered by gavage one hour prior to the antigen challenge. Percent inhibition values were determined by comparing the treatment group to the mean of the control group.

SMILES | % Inhibition of Leukotrienes
CC(CO/N=C\c1ccc(Oc2ccc(F)cc2)o1)N(O)C(N)=O (stereo not shown) [Example 6, 5-(4-fluorophenoxy)fur-2-ylmethyl-Z-oximyl-O-2-(1-methyl)ethyl-N-hydroxyurea] | 70%
CC(CO/N=C/c1ccc(Oc2ccc(F)cc2)o1)N(O)C(N)=O (stereo not shown) [Example 7, 5-(4-fluorophenoxy)fur-2-ylmethyl-E-oximyl-O-2-(1-methyl)ethyl-N-hydroxyurea] | 56%
CC(CN(O)C(N)=O)O/N=C\c1ccc(Oc2ccc(F)cc2)o1 (stereo not shown) [Example 9, 5-(4-fluorophenoxy)fur-2-ylmethyl-Z-oximyl-O-2-(2-methyl)ethyl-N-hydroxyurea] | 64%

target: T1, 5-Lipoxygenase (Homo sapiens, UniProt P09917); assay: Calcium ionophore-induced LTB4 biosynthesis in human whole blood (5-lipoxygenase inhibition); format: cell-based; details: human heparinized whole blood; 15 min preincubation at 37° C; A23187 8.3 μM, 30 min; LTB4 by radioimmunoassay
T1 construct: Human heparinized whole blood was preincubated with test compounds or vehicle for 15 min; endogenous in cells; host or cells: human heparinized whole blood (blood leukocytes)
T1 sequence (P09917 1-674): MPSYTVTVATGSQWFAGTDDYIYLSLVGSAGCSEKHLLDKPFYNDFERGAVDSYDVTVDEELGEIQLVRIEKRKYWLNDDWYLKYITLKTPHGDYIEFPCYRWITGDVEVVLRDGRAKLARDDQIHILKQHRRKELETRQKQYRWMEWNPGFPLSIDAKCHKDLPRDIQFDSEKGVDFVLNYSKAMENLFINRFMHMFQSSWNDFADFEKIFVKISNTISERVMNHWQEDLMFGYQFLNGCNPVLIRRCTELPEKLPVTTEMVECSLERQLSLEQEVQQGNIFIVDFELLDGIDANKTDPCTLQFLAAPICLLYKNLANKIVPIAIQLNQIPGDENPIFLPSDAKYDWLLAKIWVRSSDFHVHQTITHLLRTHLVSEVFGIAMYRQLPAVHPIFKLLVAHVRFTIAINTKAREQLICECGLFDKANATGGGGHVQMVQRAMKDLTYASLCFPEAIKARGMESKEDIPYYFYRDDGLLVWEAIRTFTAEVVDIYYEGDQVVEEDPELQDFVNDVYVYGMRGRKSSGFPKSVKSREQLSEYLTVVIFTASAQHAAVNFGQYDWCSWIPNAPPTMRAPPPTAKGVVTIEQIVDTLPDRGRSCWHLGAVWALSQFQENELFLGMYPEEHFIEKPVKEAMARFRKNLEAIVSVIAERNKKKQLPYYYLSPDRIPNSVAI
Protocol: Inhibition of leukotriene biosynthesis was evaluated in an assay, involving calcium ionophore-induced LTB4 biosynthesis expressed human whole blood. […] The methanol extract was analyzed for LTB4 using a commercially available radioimmunoassay. |In Vitro Inhibitory Potencies of Compounds of this Invention […] |in Human Whole Blood

SMILES | IC50
CC(=NOCCN(O)C(N)=O)c1cc2ccccc2s1 [Example 1, 1-(benzo[b]thien-2-yl)ethyloximyl-O-2-ethyl-N-hydroxyurea] | 0.1 µM
CCCCCC=NOCCN(O)C(N)=O [Example 2, hexyloximyl-O-2-ethyl-N-hydroxyurea] | 0.1 µM

Second part, the molecule after the results:

IC50 | SMILES
0.16 µM | NC(=O)N(O)CCON=Cc1cccn1Cc1ccc(Cl)cc1 [Example 3, 1-(4-chlorobenzyl)-pyrro-2-ylmethyloximyl-O-2-ethyl-N-hydroxyurea]
0.1 µM | NC(=O)N(O)CCON=Cc1cccc(Oc2ccc(F)cc2)c1 [Example 4, 3-(4-fluorophenoxy)phenylmethyloximyl-O-2-ethyl-N-hydroxyurea]
0.14 µM | CC(CN(O)C(N)=O)O/N=C/c1ccc(Oc2ccc(F)cc2)o1 (stereo not shown) [Example 8, 5-(4-fluorophenoxy)fur-2-ylmethyl-E-oximyl-O-2-(2-methyl)ethyl-N-hydroxyurea]
0.1 µM | CC(CN(O)C(N)=O)O/N=C\c1ccc(Oc2ccc(F)cc2)o1 (stereo not shown) [Example 9, 5-(4-fluorophenoxy)fur-2-ylmethyl-Z-oximyl-O-2-(2-methyl)ethyl-N-hydroxyurea]
0.1 µM | NC(=O)N(O)CCON=Cc1ccc(Sc2ccccc2)o1 [Example 10, 5-(phenylthio)fur-2-ylmethyloximyl-O-2-ethyl-N-hydroxyurea]

Reference: patent US5326883A, “Oxime ether derivatives having lipoxygenase inhibitory activity” (Abbott Laboratories, priority 1992, dated 1994)
